Here are results for two compounds from patent US6011006A, “Method of treating hot flushes with hexapeptides” (Novo Nordisk A/S, priority 1998, dated 2000).

Each structure is given as a SMILES string. Where a SMILES comes first, the peptide text is derived from it.

The subject of this experiment is depressor response to spinal cord stimulation. As to the kind of experiment: Inhibition of depressor response to spinal cord stimulation in the pithed rat. Type of experiment: in vivo, Sprague Dawley rats. The conditions noted are these: for mean reduction (% of maximal depressor response): pithed male Sprague Dawley rat, intravenous, given prior to spinal cord stimulation; for effect when repeated a second time after a second non-antagonized depressor response: all animals examined. How it is done:
Male Sprague Dawley rats (300±25 g) were anesthetized with pentobarbital sodium (50 mg/kg i.p.) and polyethylene catheters were positioned in both femoral veins for the intravenous administration of drugs, such as nociceptin and analogues, and into the left femoral artery in order to measure arterial blood pressure and heart rate.
The trachea was cannulated with polyethylene tubing and the rat was pithed, ventilated and drug treated as described by Nuki Y. et al. (Effects of Dorsal Rhizotomy on Depressor Response to Spinal Cord Stimulation Mediated by Endogenous Calcitonin Gene-related Peptide in the Pithed Rat. J. Neurosurg. 1993; 79: 899-904).
Prior administration of nociceptin and related analogs inhibited the depressor response to spinal cord stimulation accordingly: […]

As for `CC(=O)N[C@@H](CCCNC(=N)N)C(=O)N[C@@H](Cc1ccc(O)cc1)C(=O)N[C@@H](Cc1ccc(O)cc1)C(=O)N[C@@H](CCCNC(=N)N)C(=O)N[C@@H](Cc1c[nH]c2ccccc12)C(=O)N[C@@H](CCCCN)C(N)=O` [Ac--Arg--Tyr--Tyr--Arg--Trp--Lys--NH2, Ac-Arg-Tyr-Tyr-Arg-Trp-Lys-NH2] (Ac-RYYRWK-NH2), the “mean reduction (% of maximal depressor response)” value was 54 ± 12 % of maximal depressor respons (dose 0.1 mg/kg) and 32 ± 7 % of maximal depressor respons (dose 0.3 mg/kg). For the setting “pithed rat”, the “effect when repeated a second time after a second non-antagonized depressor response” value is “seen when repeated a second time”. Further, the “dose-response of inhibition of depressor response” value (pithed rat, doses 0.1 and 0.3 mg/kg) was “clear dose-response”.

As for `CC(C)C[C@H](NC(=O)[C@H](CCCCN)NC(=O)[C@H](CCCN=C(N)N)NC(=O)[C@H](C)NC(=O)[C@H](CO)NC(=O)[C@H](CCCCN)NC(=O)[C@H](CCCN=C(N)N)NC(=O)[C@H](C)NC(=O)CNC(=O)[C@@H](NC(=O)[C@H](Cc1ccccc1)NC(=O)CNC(=O)CNC(=O)[C@@H](N)Cc1ccccc1)[C@@H](C)O)C(=O)N[C@@H](C)C(=O)N[C@@H](CC(N)=O)C(=O)N[C@@H](CCC(N)=O)C(=O)O` [nociceptin, reference compound], the “mean reduction (% of maximal depressor response)” value is, setting by setting: (dose 0.1 mg/kg) 29 ± 9 % of maximal depressor respons; (dose 0.3 mg/kg) 23 ± 6 % of maximal depressor respons. For the same compound, the “effect when repeated a second time after a second non-antagonized depressor response” value (pithed rat) is given as “seen when repeated a second time”.
